Data from US12178809B2, “Pyridinyl sulfonamide derivatives, pharmaceutical compositions and uses thereof” (Boehringer Ingelheim International GmbH, priority 2018, dated 2024).
Structures can show the parent of a compound that is named as a salt. Where two headings read alike, the source gives them in different places.

Experiments:
AOC2 = AOC2 (Homo sapiens (Human), UniProt O75106); assay: AOC2 biochemical assay (Amplex Red)
Protocol: An aliquot of 5 μL of the compound dilution is added to a 96 well plate (flat bottom F, black, GREINER bio-one, #655900) in a DMSO concentration of 2%. […] Cells are cultured for 3 days in EMEM culture medium containing 10% FCS (#04-00-1A, Biological Industries). After washing twice with ice cold PBS, cells are lysed by mechanic homogenation and cleared supernatants are shock frozen in liquid nitrogen and stored at -80° C. […] An Aliquot of 45 μL is added to the compound dilution and incubated for 30 min at 37° C. The enzymatic reaction is started with the addition of 50 μL of Amplex® Red reaction mix (final assay concentration: 100 mM sodiumphosphate, 120 μM Amplex® Red reagent (#A22177 Molecular Probes), 1.5 U/mL Horseradish Peroxidase (#P8375 Sigma-Aldrich), 2 mM phenylethylamine (#[…] Sigma-Aldrich), 0.05% Pluronic F-127 (#P3000MP Sigma-Aldrich), pH 7.4, 37° C.). The turnover per time of the substrate is determined directly with a fluorescence reader (Ex 540 nm/Em 590 nm) like Envision 2104 Multilabel Reader (PERKIN ELMER) for 60 min.

human AOC3 enzyme = human AOC3 enzyme (Homo sapiens (Human), UniProt Q16853); assay: AOC3 biochemical assay (MAO-Glo)
Source text: The MAO-Glo™ Assay (commercially available from PROMEGA, #V1402) provides a sensitive method for the measurement of monoamine oxidase (MAO) activity (Valley, M. P. et al., 2006, Anal. Biochem. 359: 238-246) from a variety of tissues, biofluids or recombinant expressed or purified enzymes. As substrate a derivate of the beetle luciferin ((4S)-4,5-dihydro-2-(6-hydroxybenzothiazolyl)-4-thiazole-carboxylic acid) is used, which is oxidized at a primary amine moiety. After a spontaneous elimination and a catalyzed esterase reaction, the turnover of the luciferine by the luciferase is recorded as a signal of AOC3 activity.
An aliquot of 3 μL of the compound dilution is added to a 384 well plate (Optiplate, PS, flat bottom, white, PERKIN ELMER, #6007290) with a final DMSO concentration of 6.6%. Recombinant CHO cells, overexpressing the human (1500 cells/well), mouse (1000 cells/well) or rat (500 cells/well) AOC3 enzyme are diluted in reaction buffer and added in a volume of 15 μL to the wells. After incubation for 20 minutes at 37° C., 2 μL of MAO substrate (dissolved in DMSO at 16 mM, adjusted to assay concentration in reaction buffer to a final assay concentration of 20 μM) is added and further incubated for 60 minutes at 37° C. The turnover of the substrate is determined by the addition of 20 μL of the detection-mix which was generated by the addition of reconstitution buffer with esterase (PROMEGA, #V1402) to the luciferine detection reagent (PROMEGA, #V1402). After an incubation period of 20 minutes, the luminescent signal is measured with Envision 2104 Multilabel Reader (PERKIN ELMER).

AOC1 = AOC1 (Homo sapiens (Human), UniProt P19801); assay: AOC1 biochemical assay (Amplex Red)
Protocol: The Amplex® Red Assay (available from Thermo Fisher Scientific) provides a sensitive method for the detection of H2O2 generated during enzymatic reactions like the amine oxidation catalyzed by AOC1. The assay reagent is a colorless substrate (N-acetyl-3,7-dihydroxyphenoxazine) that reacts in a 1:1 stoichiometry with hydrogen peroxide (H2O2) to produce the fluorescent dye resorufin (7-hydroxyphenoxazin-3-one, excitation/emission maxima=570/585 nm).
An aliquot of 3 μL of the compound dilution is added to a 384 well plate (Optiplate, PS, flat bottom F, black, PERKIN ELMER, #6007270) in a DMSO concentration of 6.6%.
An AOC1 enzyme aliquot (#8297-AO-010, R&D Systems) is thawed on ice, diluted in reaction buffer and added in a volume of 7 μL to the wells to give a final assay concentration of 1 ng/well. After incubation of inhibitor and enzyme for 30 minutes at 37° C., the enzymatic reaction is started with the addition of 10 μL of Amplex® Red reaction mix (final assay concentration: 100 mM sodiumphosphate, 120 μM Amplex® Red reagent (#A22177 Molecular Probes), 1.5 U/mL Horseradish Peroxidase (#P8375 Sigma-Aldrich), 200 μM putrescine (#P7505 Sigma-Alrdich), 0.05% Pluronic F-127 (#P3000MP Sigma-Aldrich), pH 7.4, 37° C.).
After an incubation for 30 minutes at 37° C. the turnover of the substrate is determined directly (or after the addition of an excess of an amine-oxidase inhibitor) with a fluorescence reader (Ex 540 nm/Em 590 nm) like Envision 2104 Multilabel Reader (PERKIN ELMER).

Sequence of AOC2 (O75106 whole entry): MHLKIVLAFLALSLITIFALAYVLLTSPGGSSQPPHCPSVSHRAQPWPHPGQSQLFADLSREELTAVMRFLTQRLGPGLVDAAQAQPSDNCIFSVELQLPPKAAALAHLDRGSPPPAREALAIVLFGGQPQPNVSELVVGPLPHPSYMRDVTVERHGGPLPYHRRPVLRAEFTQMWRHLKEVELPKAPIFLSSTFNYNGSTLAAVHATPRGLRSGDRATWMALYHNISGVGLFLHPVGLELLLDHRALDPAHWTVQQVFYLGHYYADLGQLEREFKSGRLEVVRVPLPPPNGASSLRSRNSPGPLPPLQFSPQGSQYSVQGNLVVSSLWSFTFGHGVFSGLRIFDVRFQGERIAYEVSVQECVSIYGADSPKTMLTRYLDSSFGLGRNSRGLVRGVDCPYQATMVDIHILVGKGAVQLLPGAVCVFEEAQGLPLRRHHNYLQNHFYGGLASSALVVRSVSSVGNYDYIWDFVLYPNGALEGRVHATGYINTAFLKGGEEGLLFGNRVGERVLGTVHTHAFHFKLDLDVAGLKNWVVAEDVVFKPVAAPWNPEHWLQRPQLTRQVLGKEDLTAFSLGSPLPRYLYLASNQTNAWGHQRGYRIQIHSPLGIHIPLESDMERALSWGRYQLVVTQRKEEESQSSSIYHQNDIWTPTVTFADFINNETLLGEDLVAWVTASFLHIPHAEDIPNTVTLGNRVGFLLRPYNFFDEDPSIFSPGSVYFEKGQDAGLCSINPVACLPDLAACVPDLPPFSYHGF
Sequence of human AOC3 enzyme (Q16853 whole entry): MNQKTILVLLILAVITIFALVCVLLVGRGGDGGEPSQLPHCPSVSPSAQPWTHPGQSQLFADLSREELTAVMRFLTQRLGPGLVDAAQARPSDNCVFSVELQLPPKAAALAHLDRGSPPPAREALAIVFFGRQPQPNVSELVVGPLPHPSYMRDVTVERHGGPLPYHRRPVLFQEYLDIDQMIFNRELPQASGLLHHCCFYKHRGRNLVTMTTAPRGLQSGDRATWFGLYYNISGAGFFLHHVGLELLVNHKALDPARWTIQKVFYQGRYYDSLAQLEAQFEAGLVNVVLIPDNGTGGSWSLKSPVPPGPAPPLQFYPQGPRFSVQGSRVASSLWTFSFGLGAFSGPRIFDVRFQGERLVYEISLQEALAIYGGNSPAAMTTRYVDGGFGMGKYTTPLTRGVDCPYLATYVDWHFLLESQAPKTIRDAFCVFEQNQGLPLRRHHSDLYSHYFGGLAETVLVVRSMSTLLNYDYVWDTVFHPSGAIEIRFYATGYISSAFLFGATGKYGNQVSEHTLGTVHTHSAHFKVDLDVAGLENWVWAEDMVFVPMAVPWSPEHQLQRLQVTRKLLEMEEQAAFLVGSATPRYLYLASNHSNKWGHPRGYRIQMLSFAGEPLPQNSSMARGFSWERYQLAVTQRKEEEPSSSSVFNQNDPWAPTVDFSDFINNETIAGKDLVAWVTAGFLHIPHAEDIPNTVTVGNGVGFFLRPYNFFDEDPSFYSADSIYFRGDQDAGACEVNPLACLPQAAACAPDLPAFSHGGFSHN
Sequence of AOC1 (P19801 20-751): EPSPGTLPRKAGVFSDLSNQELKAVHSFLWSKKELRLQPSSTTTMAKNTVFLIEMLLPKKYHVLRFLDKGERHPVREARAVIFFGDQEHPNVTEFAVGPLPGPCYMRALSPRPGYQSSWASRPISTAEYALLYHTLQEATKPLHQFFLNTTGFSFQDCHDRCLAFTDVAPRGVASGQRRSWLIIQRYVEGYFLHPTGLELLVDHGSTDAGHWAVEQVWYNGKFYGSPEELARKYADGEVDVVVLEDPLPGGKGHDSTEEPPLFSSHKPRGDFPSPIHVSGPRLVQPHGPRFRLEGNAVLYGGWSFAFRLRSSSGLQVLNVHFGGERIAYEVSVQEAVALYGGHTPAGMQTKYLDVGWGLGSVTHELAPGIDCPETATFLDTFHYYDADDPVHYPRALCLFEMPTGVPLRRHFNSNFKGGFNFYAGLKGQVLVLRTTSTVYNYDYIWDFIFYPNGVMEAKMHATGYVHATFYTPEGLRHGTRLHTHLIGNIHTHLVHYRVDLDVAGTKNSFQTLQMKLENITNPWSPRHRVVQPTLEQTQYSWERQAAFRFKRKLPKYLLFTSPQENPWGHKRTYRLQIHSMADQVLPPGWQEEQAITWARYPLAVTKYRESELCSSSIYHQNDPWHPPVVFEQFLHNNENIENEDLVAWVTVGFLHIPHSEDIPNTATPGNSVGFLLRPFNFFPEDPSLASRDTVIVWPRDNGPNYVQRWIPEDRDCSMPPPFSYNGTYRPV

Row | Structure (SMILES) | IC50 (AOC2; read-out: AOC2 IC50) [nM] | IC50 (human AOC3 enzyme; read-out: AOC3 IC50) [nM] | IC50 (AOC1; read-out: AOC1 IC50) [µM] | fold less active against AOC2 as compared to AOC3 (ratio IC50 AOC2/IC50 AOC3) (AOC2) | IC50 (AOC2; comparison table, read-out: IC50 AOC2) [nM] | IC50 (human AOC3 enzyme; comparison table, read-out: IC50 AOC3) [nM] | IC50 (AOC1; comparison table, unit μM, read-out: IC50 AOC1) [µM]
1 | CNC(=O)[C@H]1[C@@H]2CN(S(=O)(=O)c3ccc(OC/C(=C/F)CN)nc3)C[C@@H]21 [Example 01, trans-3-[6-((E)-2-Aminomethyl-3-fluoro-allyloxy)-pyridine-3-sulfonyl]-3-aza-bicyclo[3.1.0]hexane-6-carboxylic acid methylamide trifluoroacetate] | 162 | 12 | 43.4 |  |  |  | 
2 | NC/C(=C\F)COc1ccc(S(=O)(=O)N2CC[C@@H](O)C2)cn1 [Example 36] | 551 | 67 | > 50 |  |  |  | 
3 | NC/C(=C\F)COc1ccc(S(=O)(=O)N2CCC(C(N)=O)CC2)cn1 [Example 17] | 251 | 8 | > 50 |  |  |  | 
4 | COC1CCN(S(=O)(=O)c2ccc(OC/C(=C/F)CN)nc2)CC1 [Example 46] | 234 | 10 | > 50 |  |  |  | 
5 | NC/C(=C\F)COc1ccc(S(=O)(=O)N2CCCCC2)cn1 [Example 47] | 144 | 5 | 23.2 |  |  |  | 
6 | NC/C(=C\F)COc1ccc(S(=O)(=O)N2CC3CC3C2)cn1 (centres unmarked) [Example 41] | 123 | 5 | 25.4 |  |  |  | 
7 | NC/C(=C\F)COc1ccc(S(=O)(=O)N2CCC(CC(=O)O)CC2)cn1 [Example 54, trifluoroacetate] | 4 | 308 | > 50 |  |  |  | 
8 | NC/C(=C\F)COc1ccc(S(=O)(=O)N2CC[C@H](C(=O)N3CCOCC3)C2)cn1 [Example 25] | 164 | 36 | 26.7 |  |  |  | 
9 | CNC(=O)NC1CCN(S(=O)(=O)c2ccc(OC/C(=C/F)CN)nc2)CC1 [Example 07] | 531 | 37 | > 50 |  |  |  | 
10 | NC/C(=C\F)COc1ccc(S(=O)(=O)N2CCC(N3CCNC3=O)CC2)cn1 [Example 04] | 806 | 49 | > 50 |  |  |  | 
11 | CN(C)C(=O)[C@H]1CCN(S(=O)(=O)c2ccc(OC/C(=C/F)CN)nc2)C1 [Example 27] | 160 | 51 | > 50 |  |  |  | 
12 | NC/C(=C\F)COc1ccc(S(=O)(=O)N2CCC(F)(F)C2)cn1 [Example 43] | 69 | 16 | 36.5 |  |  |  | 
13 | COC1CCN(S(=O)(=O)c2ccc(OC/C(=C/F)CN)nc2)C1.O=C(O)C(F)(F)F (centres unmarked) [Example 40] | 125 | 26 | > 50 | ca. 5 fold | 125 | 26 | > 50
14 | NC/C(=C\F)COc1ccc(S(=O)(=O)N2CCC(CC(N)=O)CC2)cn1 [Example 60] | 92 | 21 | > 50 |  |  |  | 
15 | NC/C(=C\F)COc1ccc(S(=O)(=O)N2CCC(C(=O)N3CCOCC3)CC2)cn1 [Example 10] | 407 | 52 | > 50 |  |  |  | 
16 | NC/C(=C\F)COc1ccc(S(=O)(=O)N2CCC(O)CC2)cn1.O=C(O)C(F)(F)F [Example 45] | 307 | 10 | 11.4 | ca. 30 fold |  |  | 
17 | NC/C(=C\F)COc1ccc(S(=O)(=O)N2CCC(C(=O)N3CCC3)CC2)cn1 [Example 13] | 358 | 43 | > 50 |  |  |  | 
